From publication PMC12091851, “Replacing a Cereblon Ligand by a DDB1 and CUL4 Associated Factor 11 (DCAF11) Recruiter Converts a Selective Histone Deacetylase 6 PROTAC into a Pan‐Degrader” (Chemmedchem, 2025)

What was measured:
HDAC2 = HDAC2 (Homo sapiens, UniProt Q92769); assay: HDAC enzyme inhibition assay; format: biochemical; design: purchased BPS Bioscience 50052
Method: Bio-Rad) to Immobilon-FL PVDF membranes (Catalog# IPFL00005, Mill ipore Merck, Burlington, MA, USA) at 1.0 A for 30 min and treated with 5% milk-powder solution for 1 h at room temperature […]
Signaling Technology) antibody solutions in 1:1000 –1:8000 dilutions at 4 °C overnight. […]
Significance testing was performed with a one -way analysis of variance (ANOVA). Dunnett’s post -hoc test was employed to obtain significance levels of each mean compared to a reference mean value.
2.7. HDAC Enzyme Inhibition Assay […]
[4] For test compounds and controls, serial dilutions of the respective DMSO stock solution in DMSO were prepared, and 1.0 μL /well of this serial dilution were transferred […]
into OptiPlate-96 black microplates (PerkinElmer, Waltham, […], USA). A volume of 4 µL/well assay […]
BSA) was added. In the case of HDAC1, 2, and 6, a volume of 35 μL/well of the fluorogenic substrate […]
The total assay volume of 50 μL (max. 2 % DMSO) was incubated at 37 °C for 90 min. Subsequently, 50 μL /well of trypsin (0.4 mg/mL) in trypsin buffer (50 mM Tris−HCl, pH 8.0, 100 mM NaCl) was added, followed by additional 30 min of incubation at […]
OPTIMA microplate reader (BMG labtech, Ortenburg, Germany). The half maximal inhibitory concentration (IC50) was determined by plotting dose response curves and nonlinear regression with GraphPad Prism (GraphPad Software).
2.8. MTT Cell Viability Assay […]

[1] = Aqueous stability assay in DPBS buffer (HPLC); format: physicochemical; conditions: DPBS pH 7.4, 10% DMSO, room temperature, 72 hours
Method: and A6. Compounds were diluted in DPBS buffer (pH = 7.4; final DMSO concentration: 10%) and the remaining compound content was analyzed by HPLC. The peak area at 0 h was used for normalization.
Mean ± standard deviation of n = 2 replicates.
Figure S4. Analysis of time dependent degradation by 1j of HDAC1 (A) and HDAC6 (B) by Simple Western™ immunoassay analysis of MM.1S cell lysates. MM.1S cells were treated with 1j (10 µM) or vehicle (DMSO) for the indicated time period. Quantification of protein levels presented as mean ± standard deviation of n = 3 biological replicates. Si gnificance compared to vehicle: * = p≤0.05 , […]
2.5. Aqueous Stability Assay
For stability testing in aqueous solution, a 10-fold concentrated DMSO solution of the respective compounds was diluted in DPBS to generate a 10 µM concentration (final DMSO content of 10%).
Samples of the aqueous solutions were taken after 0, 24, 48, and 72 h at room temperature and the amounts of the parental compound and potential fragments were monitored by HPLC gradient A (see 3.1 General Information). The peak area of the 0 h sample was used for normalization. All compounds were tested in duplicates and GraphPad Prim was used for evaluation and data visualization.
The cell lysis was performed as descripted in 3.2. Simple Western Immunoassay. […]
Afterwards, proteins were transferred with the Trans -Blot Turbo Transfer System (Catalog# 1704150, Bio-Rad) to Immobilon-FL PVDF membranes (Catalog# IPFL00005, Mill ipore Merck, Burlington, MA, USA) at 1.0 A for 30 min and treated with 5% milk-powder solution for 1 h at room temperature under slight agitation. […] The ChemiDoc XRS+ System (Catalog# 1708265 , Bio-Rad) was used for detection and Image Lab Software 6.1 (Bio-Rad) for quantification. […]
In vitro inhibitory activities against HDAC1, 2 , and 6 were measured using a previously published protocol.[3] In vitro inhibitory activities against HDAC4 were measured using a previously published protocol with slight modifications. […]

Sequence of HDAC2 (Q92769 whole entry): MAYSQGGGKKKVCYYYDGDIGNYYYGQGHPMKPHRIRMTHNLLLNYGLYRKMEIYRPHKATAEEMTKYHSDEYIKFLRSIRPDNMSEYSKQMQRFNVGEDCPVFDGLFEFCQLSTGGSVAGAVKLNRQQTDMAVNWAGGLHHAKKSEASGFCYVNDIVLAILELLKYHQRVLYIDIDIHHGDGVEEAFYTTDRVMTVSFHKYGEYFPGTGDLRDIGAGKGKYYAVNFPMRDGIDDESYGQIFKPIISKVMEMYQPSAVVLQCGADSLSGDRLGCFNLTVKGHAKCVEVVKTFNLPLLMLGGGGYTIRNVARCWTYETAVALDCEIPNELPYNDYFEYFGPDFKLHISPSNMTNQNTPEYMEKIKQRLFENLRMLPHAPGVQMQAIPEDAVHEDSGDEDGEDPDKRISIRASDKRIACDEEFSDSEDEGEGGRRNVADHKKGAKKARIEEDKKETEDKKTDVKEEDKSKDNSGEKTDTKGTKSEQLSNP

| IC50 (HDAC2) | decomposition / reduction in content in DPBS buffer [1] | Structure (SMILES) |
| --- | --- | --- |
| 2.15 ± 0.11 µM | more than 90% | O=C(CCCCCCNC(=O)c1ccc(NC(=O)CCCCCCCCCCCN(C(=O)CCl)C(C(=O)NCc2ccccc2)c2ccc(Cl)c(Cl)c2)cc1)NO (stereo not shown) [Compound 1j] |
| 0.298 ± 0.011 µM | 31% | O=C(CCCCCCNC(=O)c1ccc(N(C(=O)CCl)C(C(=O)NCc2ccccc2)c2ccc(Cl)c(Cl)c2)cc1)NO (stereo not shown) [Compound 2] |
